From US7550469B2, “Heterocyclic amide derivatives and their use as dopamine D3 receptor ligands” (Aventis Pharmaceuticals Inc., priority 2001, dated 2009)
Like-named read-outs stand apart in the source and are kept apart here.

Biological target: T1, cloned human alpha-1A adrenergic receptors (α1a) (Homo sapiens, UniProt P35348)
T1 construct: expressed in transfected cells; host or cells: CHO cells, G418-resistant clone, pcDNA3 vector; membrane fragments
T1 sequence (P35348 1-466): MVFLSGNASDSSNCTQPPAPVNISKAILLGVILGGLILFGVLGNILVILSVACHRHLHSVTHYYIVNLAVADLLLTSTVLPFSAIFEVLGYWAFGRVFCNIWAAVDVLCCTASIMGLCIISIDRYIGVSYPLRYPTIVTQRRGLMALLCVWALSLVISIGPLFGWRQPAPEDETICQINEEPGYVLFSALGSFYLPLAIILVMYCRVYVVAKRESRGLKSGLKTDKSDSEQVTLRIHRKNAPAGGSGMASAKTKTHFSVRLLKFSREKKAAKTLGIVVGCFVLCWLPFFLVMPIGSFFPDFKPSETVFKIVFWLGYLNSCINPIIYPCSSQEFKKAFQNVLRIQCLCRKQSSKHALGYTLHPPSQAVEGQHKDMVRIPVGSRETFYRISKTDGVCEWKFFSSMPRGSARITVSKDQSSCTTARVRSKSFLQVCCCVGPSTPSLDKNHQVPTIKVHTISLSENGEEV
Assay: [3H]Prazosin binding to cloned human alpha-1A adrenergic receptors expressed in CHO cells
From the text: ^3H]PRAZOSIN BINDING TO CLONED HUMAN ALPHA-1A ADRENERGIC RECEPTORS (α1a) EXPRESSED IN CHINESE HAMSTER OVARY CELLS (CHO)
Purpose: This in vitro assay is designed as a screen to identify compounds displaying a affinity for the human α1a adrenoceptor subtype expressed in the membrane fragments of CHO cells. The assay measures the ability of the test compounds to displace [^3H] prazosin from α1a sites. • The identification of multiple vascular α1-addrenoceptors (α1a, α1b, α1d) in vitro has provided impetus to define the role(s) of these subtypes in cardiovascular regulation in vivo (Vargas and Gorman, 1995). […] Prazosin is a potent antagonist of the human α1a-adrenoceptor subtype, which has been cloned and is expressed in the membrane fragments of CHO cells. hα1a Receptor: The cloning of the human α1a cDNA was accomplished first by screening a human prostate cDNA library (Clontech), from which a portion of the coding region was obtained. This DNA fragment was then used to screen a human leukocyte genomic library (Clontech), and the rest of the coding sequence was obtained. Later these two fragments were spliced together. The entire coding sequence was then fully sequenced including matching PCR sequence with original genomic coding sequence, thus ensuring splice sites were joined correctly (Schwinn et al., 1995). Once sequenced, the gene was subcloned into the expression vector pcDNA3 (Invitrogen). Plasmid DNA was then used for transfection into CHO cells and G418 resistant clones were isolated. A clone expressing high levels of the hα1a receptor (as determined by mRNA and receptor binding data) was chosen and pharmacologically characterized. Culture Media: Media Ingredients for Adherent α1a expressing CHO Culture: • A. HAM's F-12 (Cellgro) • B. 10% 0.2 micron filtered Fetal Bovine Serum (FBS)(Cellgro) • C. 1% 0.2 micron filtered Penicillin-Streptomycin (Celigro) • D. G418 0.2 micron filtered (Geneticin 400 μg/ml)(Cellgro) • Cells are cultured using established methods and procedures in either 150×25 mm culture plates (scale up to 100 plates) or a combination of these plates and 70 roller bottles. One culturing/harvest cycle typically requires 2 weeks and yields between 100-400 mg protein. Plates or bottles are incubated at 37° C.+5% CO2. Storage: Cells are harvested by mechanical scraping, washed using PBS, collected in 250 ml Corning polypropylene centrifuge tubes, spun down (1500RPM) and resuspended in dH2O 10% DMSO (final volume per harvest is approximately 50 ml). Protein determination is made using the Biorad DC Assay Kit. Finally, the appropriate volume is aliquoted into a 2 ml Corning Cryovial (10 mg/1-1.5 ml) which is stored at −80° C. Current Lot Data:
Assay Requirement: 0.5 cryovials per 96 well plate (assay volume=200 μl/well) [^3H]-Ligand: [7-methoxy-^3H]-Prazosin: 1.0 nM (NEN, NET-823) • 70-87 Ci/mmol Materials: Phentolamine mesylate (Research Biochemicals Int. #P-131) • 96 well flat bottom plates (Beckman) • Unifilter GF/B Plate (Packard) • Polyethylenimine (Sigma #P-3134) • TomTec or Packard Filtermate 196 Cell Harvesters • Packard TopCount Scintillation Counter Buffers: A: 50 mM Tris HCl; 0.1% ascorbate, pH 7.7 (incubation buffer) • B: 50 mM Tris HCl; pH 7.7 (wash buffer) Procedure: Assay additions are as follows (in the order indicated): • Total Binding=50 μl buffer A+50 μl [^3H]prazosin+100 μl membrane • Nonsp. Bd.=50 μl 10 μM phentolamine+50 μl [^3H]prazosin+100 μl membrane • Test Cpd.=50 μl compound+50 μl [^3H]prazosin+100 μl membrane • Compounds to be evaluated are weighed out to yield a 10 mM stock solution in DMSO in a 24 well polystyrene plate. This is diluted to a 0.5 mM stock in dH2O. Serial dilutions in Buffer A are made from which 50 μl additions to the plate are made in duplicate in order to achieve the final concentrations desired. Typically, one 96 well plate is used to evaluate 11 compounds at 4 concentrations (10^−6-10^−9 M) in duplicate. […]

[1] = human α-1, 6-fluoro vs 6-trifluoromethyl benzo[b]thiophene pairs, read-out: halpha 1 Ki (nM) h = human
[2] = h = human, piperazines (n = 1) vs homopiperazines (n = 2), read-out: h-α1 Ki

| Ki [1] | Ki [2] | Structure (SMILES) | also measured |
| --- | --- | --- | --- |
| 12 nM |  | O=C(NCCCCN1CCN(c2csc3cc(C(F)(F)F)ccc23)CC1)c1ccco1 [compound 815556] |  |
| 72 nM |  | O=C(NCCCCN1CCN(c2csc3cc(C(F)(F)F)ccc23)CC1)c1c(F)cccc1F [compound 815557] |  |
|  | 122 nM | O=C(NCCCCN1CCCN(c2csc3cc(F)ccc23)CC1)c1ccc(OC(F)(F)F)cc1 [compound 822152] |  |
|  | 41.8 nM | O=C(NCCCCN1CCCN(c2csc3cc(F)ccc23)CC1)c1cccc(F)c1 [compound 822154] |  |
|  | 27.4 nM | COc1ccccc1C(=O)NCCCCN1CCCN(c2csc3cc(F)ccc23)CC1 [compound 822157] |  |
|  | 209 nM | CC(C)(C)c1ccc(C(=O)NCCCCN2CCCN(c3csc4cc(F)ccc34)CC2)cc1 [compound 822198] |  |

The next lines start with the compound.

| Structure (SMILES) | Ki [1] | Ki [2] | also measured |
| --- | --- | --- | --- |
| O=C(NCCCCN1CCN(c2csc3cc(C(F)(F)F)ccc23)CC1)c1cc2ccccc2s1 [814238A] | 78.3 nM |  |  |
| O=C(NCCCCN1CCN(c2csc3cc(C(F)(F)F)ccc23)CC1)c1ccc(-c2ccccc2)cc1 [815547A] |  |  | halpha 1 % I h = human (Inh @ 10 uM): 18.7% @ 10 uM |
| O=C(NCCCCN1CCCN(c2csc3cc(F)ccc23)CC1)c1ccc2ccccc2c1 [822223G] |  | 123 nM |  |
| O=C(NCCCCN1CCCN(c2csc3cc(F)ccc23)CC1)c1cc2ccccc2s1 [822224G] |  | 82.5 nM |  |
| O=C(NCCCCN1CCCN(c2csc3cc(F)ccc23)CC1)c1ccco1 [S981843] |  | 5.6 nM |  |
| CCOc1ccc(C(=O)NCCCCN2CCN(c3csc4cc(C(F)(F)F)ccc34)CC2)cc1 [compound 815541] | 1110 nM |  | halpha 1 % I h = human (Inh @ 10 uM): 48% Inh @ 10 uM |
| O=C(NCCCCN1CCN(c2csc3cc(C(F)(F)F)ccc23)CC1)c1ccc(F)cc1F [compound 815542] | 68 nM |  |  |
| O=C(NCCCCN1CCN(c2csc3cc(C(F)(F)F)ccc23)CC1)c1ccc2c(c1)OCO2 [compound 815544] | 62 nM |  |  |
| CCCCOc1ccc(C(=O)NCCCCN2CCN(c3csc4cc(C(F)(F)F)ccc34)CC2)cc1 [compound 815545] |  |  | halpha 1 % I h = human (Inh @ 10 uM): 25% Inh @ 10 uM |
| O=C(NCCCCN1CCN(c2csc3cc(C(F)(F)F)ccc23)CC1)c1sc2ccccc2c1Cl [compound 815546] | 59 nM |  |  |
| O=C(NCCCCN1CCN(c2csc3cc(C(F)(F)F)ccc23)CC1)c1ccc(Cl)cc1 [compound 815548] |  |  | halpha 1 % I h = human (Inh @ 1 uM): 27% Inh @ 1 uM |
| O=C(NCCCCN1CCN(c2csc3cc(C(F)(F)F)ccc23)CC1)c1ccc(Br)cc1 [compound 815551] | 80 nM |  |  |
| COc1ccccc1C(=O)NCCCCN1CCN(c2csc3cc(C(F)(F)F)ccc23)CC1 [compound 815554] |  |  | halpha 1 % I h = human (Inh @ 1 uM): 40% Inh @ 1 uM |
| O=C(NCCCCN1CCN(c2csc3cc(C(F)(F)F)ccc23)CC1)c1ccc(C(F)(F)F)cc1 [compound 815555] |  |  | halpha 1 % I h = human (Inh @ 1 uM): 24% Inh @ 1 uM |
